Experimental data reported in the supplement of paper PMC11451515.

Test system: NOMO1
Experiment: cell viability relative to DMSO control; higher = less cytotoxic
Settings: 48 h
Method in brief: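 Viability, reported as a per-plate percentage of DMSO wells with cell-free wells as background, came from CellTiter-Glo One luminescence. Reading took place after 48 h at 37°C. Before that, NOMO1 or SEM (500 cells/well) or P12-Ichikawa (1000 cells/well) leukemia cells, adapted for at least four passages in each medium, were seeded in 1536-well plates (5 μl) and pin-dosed with library compounds in DMSO, 47 μM to 0.79 nM over 11 threefold points.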

[1] = HPLM + 10% dialyzed FBS, 0.000781 µM
[2] = HPLM + 10% dialyzed FBS, 0.00234 µM
[3] = HPLM + 10% dialyzed FBS, 0.00702 µM
[4] = HPLM + 10% dialyzed FBS, 0.0211 µM
[5] = HPLM + 10% dialyzed FBS, 0.0632 µM
[6] = HPLM + 10% dialyzed FBS, 0.19 µM
[7] = HPLM + 10% dialyzed FBS, 0.569 µM
[8] = HPLM + 10% dialyzed FBS, 1.71 µM
[9] = HPLM + 10% dialyzed FBS, 5.12 µM
[10] = HPLM + 10% dialyzed FBS, 15.4 µM
[11] = HPLM + 10% dialyzed FBS, 46.1 µM
[12] = RPMI 5 mM glucose + 10% FBS, 0.000781 µM
[13] = RPMI 5 mM glucose + 10% FBS, 0.00234 µM
[14] = RPMI 5 mM glucose + 10% FBS, 0.00702 µM
[15] = RPMI 5 mM glucose + 10% FBS, 0.0211 µM
[16] = RPMI 5 mM glucose + 10% FBS, 0.0632 µM
[17] = RPMI 5 mM glucose + 10% FBS, 0.19 µM
[18] = RPMI 5 mM glucose + 10% FBS, 0.569 µM
[19] = RPMI 5 mM glucose + 10% FBS, 1.71 µM
[20] = RPMI 5 mM glucose + 10% FBS, 5.12 µM
[21] = RPMI 5 mM glucose + 10% FBS, 15.4 µM
[22] = RPMI 5 mM glucose + 10% FBS, 46.1 µM
[23] = RPMI 5 mM glucose + 10% dialyzed FBS, 0.000781 µM
[24] = RPMI 5 mM glucose + 10% dialyzed FBS, 0.00234 µM
[25] = RPMI 5 mM glucose + 10% dialyzed FBS, 0.00702 µM
[26] = RPMI 5 mM glucose + 10% dialyzed FBS, 0.0211 µM
[27] = RPMI 5 mM glucose + 10% dialyzed FBS, 0.0632 µM
[28] = RPMI 5 mM glucose + 10% dialyzed FBS, 0.19 µM
[29] = RPMI 5 mM glucose + 10% dialyzed FBS, 0.569 µM
[30] = RPMI 5 mM glucose + 10% dialyzed FBS, 1.71 µM
[31] = RPMI 5 mM glucose + 10% dialyzed FBS, 5.12 µM
[32] = RPMI 5 mM glucose + 10% dialyzed FBS, 15.4 µM
[33] = RPMI 5 mM glucose + 10% dialyzed FBS, 46.1 µM

SMILES | cell viability [1] [%] | cell viability [2] [%] | cell viability [3] [%] | cell viability [4] [%] | cell viability [5] [%] | cell viability [6] [%] | cell viability [7] [%] | cell viability [8] [%] | cell viability [9] [%] | cell viability [10] [%] | cell viability [11] [%] | cell viability [12] [%] | cell viability [13] [%] | cell viability [14] [%] | cell viability [15] [%] | cell viability [16] [%] | cell viability [17] [%] | cell viability [18] [%] | cell viability [19] [%] | cell viability [20] [%] | cell viability [21] [%] | cell viability [22] [%] | cell viability [23] [%] | cell viability [24] [%] | cell viability [25] [%] | cell viability [26] [%] | cell viability [27] [%] | cell viability [28] [%] | cell viability [29] [%] | cell viability [30] [%] | cell viability [31] [%] | cell viability [32] [%] | cell viability [33] [%]
Oc1ccc2c3c1O[C@H]1c4[nH]c5c(c4C[C@@]4(O)[C@@H](C2)N(CC2CC2)CC[C@]314)C[C@@]1(O)[C@H]2Cc3ccc(O)c4c3[C@@]1(CCN2CC1CC1)[C@H]5O4 | 92.7 | 104 | 114 | 116 | 116 | 136 | 108 | 115 | 129 | 132 | 131 | 99.8 | 122 | 110 | 116 | 128 | 118 | 125 | 120 | 116 | 123 | 134 | 98 | 127 | 112 | 122 | 123 | 126 | 122 | 110 | 108 | 124 | 119
COC1CCC(CC1)N(C(=O)C2CCC(C)CC2)C3=C(SC(=C3)\C4=C\CCCC4)C(O)=O (stereo not drawn) | 120 | 120 | 109 | 127 | 128 | 130 | 107 | 112 | 106 | 90.9 | 52.6 | 103 | 115 | 104 | 119 | 102 | 104 | 91.5 | 105 | 103 | 90.7 | 96 | 102 | 102 | 120 | 102 | 110 | 99.4 | 97 | 109 | 104 | 93.4 | 84.5
CC(C)(C)c1cc(NC(=O)Nc2ccc(-c3cn4c(n3)sc3cc(OCCN5CCOCC5)ccc34)cc2)no1 | 92.8 | 93.9 | 90.5 | 104 | 101 | 102 | 87.3 | 99.7 | 110 | 123 | 96.5 | 76.8 | 76 | 85.1 | 88.3 | 82 | 79.2 | 81.4 | 87 | 81.4 | 81.8 | 88.5 | 85.1 | 94.8 | 101 | 82.3 | 90.5 | 90.8 | 90.8 | 93.1 | 92.9 | 92.1 | 89.7
CC1CCC(C(=O)N(c2cc(C#CC(C)(C)C)sc2C(=O)O)C2CCC(O)CC2)CC1 (stereo not drawn) | 108 | 98.7 | 111 | 113 | 96 | 92.9 | 98.7 | 85 | 78.9 | 50.1 | 53.5 | 87.2 | 98.8 | 91.5 | 90.9 | 85 | 87.9 | 88.6 | 87.7 | 78.1 | 75.1 | 59.8 | 97.5 | 97.1 | 89.7 | 98.3 | 96.5 | 86.3 | 93.2 | 81.7 | 79.9 | 65.2 | 46.1
COC1=NC(=NC(=C1N\C2=N\CCN2)Cl)C | 113 | 94.9 | 90.3 | 93.6 | 111 | 104 | 89.5 | 109 | 82 | 97.6 | 84.8 | 79.1 | 83.8 | 89.1 | 93.1 | 94 | 100 | 84.2 | 91.8 | 92.5 | 86.5 | 90 | 86.2 | 85.8 | 82.8 | 85 | 95.6 | 94 | 91.3 | 86.5 | 80.3 | 89.5 | 85.3
CN(CC#C)C/C1=C/C2=CC=CC=C2OC3=CC=CC=C13 | 82.4 | 98.5 | 91.5 | 89.2 | 98.9 | 91.2 | 85.2 | 70.4 | 82.3 | 65.1 | 64 | 81.3 | 85.1 | 82.2 | 94.4 | 86.3 | 77.5 | 92.6 | 81.3 | 80 | 85.1 | 75.5 | 89.1 | 81.7 | 83.8 | 87 | 91.5 | 78.4 | 81.1 | 84.4 | 93.6 | 87.1 | 80.6
C[C@H]1[C@H](NC(=O)/C(=N/OC(C)(C)C(=O)O)c2csc(N)n2)C(=O)N1[S+](=O)([O-])O | 98.5 | 98 | 98.9 | 111 | 108 | 110 | 113 | 88.2 | 102 | 85.3 | 90.4 | 105 | 98.3 | 101 | 108 | 107 | 105 | 107 | 104 | 92.3 | 108 | 103 | 94.2 | 101 | 94.1 | 92.3 | 97.3 | 94.7 | 91.7 | 99.2 | 85.2 | 91.1 | 83.3
CNC(=O)c1ccc(-c2cnc3ncc(Cc4ccc5ncccc5c4)n3n2)cc1F | 113 | 127 | 120 | 103 | 132 | 116 | 131 | 133 | 125 | 117 | 135 | – | – | – | – | – | – | – | – | – | – | – | 116 | 124 | 138 | 131 | 126 | 136 | 129 | 136 | 130 | 137 | 145
